Among the data in BindingDB's records for doi:10.1021/jm701270n (National Taiwan University, 2008) are Ki values, retold here.

A word on the Ki: it is the dissociation constant of the complex between target and ligand, obtained from inhibition or displacement. Higher therefore signals weaker binding.

Chain of Sodium-dependent dopamine transporter (P23977 whole entry): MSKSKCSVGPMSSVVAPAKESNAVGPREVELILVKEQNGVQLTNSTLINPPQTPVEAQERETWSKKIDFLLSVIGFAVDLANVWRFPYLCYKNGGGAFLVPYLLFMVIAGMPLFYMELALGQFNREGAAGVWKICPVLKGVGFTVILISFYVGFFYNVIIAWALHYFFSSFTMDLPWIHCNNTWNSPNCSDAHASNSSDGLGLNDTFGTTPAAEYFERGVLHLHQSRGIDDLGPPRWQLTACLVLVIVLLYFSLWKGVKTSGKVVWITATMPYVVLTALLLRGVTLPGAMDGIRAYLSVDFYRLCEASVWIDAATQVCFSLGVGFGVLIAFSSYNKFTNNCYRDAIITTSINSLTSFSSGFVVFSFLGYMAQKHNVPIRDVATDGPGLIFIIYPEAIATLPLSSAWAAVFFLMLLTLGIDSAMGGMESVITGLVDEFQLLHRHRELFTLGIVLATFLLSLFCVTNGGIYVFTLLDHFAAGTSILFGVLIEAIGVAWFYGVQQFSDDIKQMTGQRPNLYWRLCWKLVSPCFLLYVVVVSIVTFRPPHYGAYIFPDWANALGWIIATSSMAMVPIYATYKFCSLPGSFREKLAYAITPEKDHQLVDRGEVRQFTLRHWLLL

One experiment addresses Sodium-dependent dopamine transporter (Rattus norvegicus, UniProt P23977). The experiment can be described thus: Radioligand Binding Assay.
Conditions: not given
How it is done: The assay was initiated by the addition of membranes to binding buffer containing test compound, blocker, and radioligand. The samples were incubated in triplicate. Brandel cell harvesters were used to filter the samples over Whatman GF/B filters, which were presoaked in wash buffer. The 125I retained on the filters was measured in a gamma counter.
Consider `O=C(CN1CCN(CCOC(c2ccccc2)c2ccccc2)CC1)c1ccccc1` [2-{4-[2-(diphenylmethoxy)ethyl]piperazin-1-yl}-1-phenylethan-1-one], for which the affinity corresponds to a Ki of 450 nM.
`O=C(Cc1ccccc1)CN1CCN(CCOC(c2ccc(F)cc2)c2ccc(F)cc2)CC1` [1-(4-{2-[bis(4-fluorophenyl)methoxy]ethyl}piperazin-1-yl)-3-phenylpropan-2-one]: the Ki stood at 6.5 nM. Against the preceding compound, the Ki is about 69-fold lower.
Compound `O=C(CN1CCN(CCOC(c2ccc(F)cc2)c2ccc(F)cc2)CC1)c1ccccc1` [2-(4-{2-[bis(4-fluorophenyl)methoxy]ethyl}piperazin-1-yl)-1-phenylethan-1-one] yielded a Ki of 54 nM.
`CC(O)(Cc1ccccc1)CN1CCN(CCOC(c2ccc(F)cc2)c2ccc(F)cc2)CC1` (configuration not stated) [1-(4-{2-[bis(4-fluorophenyl)methoxy]ethyl}piperazin-1-yl)-2-methyl-3-phenylpropan-2-ol]: the inhibition constant (Ki) was determined as 57 nM.
`C=C(Cc1ccccc1)CN1CCN(CCOC(c2ccccc2)c2ccccc2)CC1` [1-(2-benzylprop-2-en-1-yl)-4-[2-(diphenylmethoxy)ethyl]piperazine]: the Ki was determined as 410 nM.
Turning to `FC[C@@H](Cc1ccccc1)N1CCN(CCOC(c2ccc(F)cc2)c2ccc(F)cc2)CC1` [1-{2-[bis(4-fluorophenyl)methoxy]ethyl}-4-[(2R)-1-fluoro-3-phenylpropan-2-yl]piperazine], the Ki turned out to be 110 nM.
As to `FC[C@H](Cc1ccccc1)N1CCN(CCOC(c2ccc(F)cc2)c2ccc(F)cc2)CC1` [1-{2-[bis(4-fluorophenyl)methoxy]ethyl}-4-[(2S)-1-fluoro-3-phenylpropan-2-yl]piperazine], the affinity corresponds to a Ki of 140 nM.
Take `O=C(Cc1ccccc1)CN1CCN(CCOC(c2ccccc2)c2ccccc2)CC1` [1-{4-[2-(diphenylmethoxy)ethyl]piperazin-1-yl}-3-phenylpropan-2-one]: the affinity, expressed as Ki, was 10 nM.
In turn, `CC(O)(Cc1ccccc1)CN1CCN(CCOC(c2ccccc2)c2ccccc2)CC1` (configuration not stated) [1-{4-[2-(diphenylmethoxy)ethyl]piperazin-1-yl}-2-methyl-3-phenylpropan-2-ol] returned an inhibitory constant (Ki) of 150 nM.
Same read-out and setting: then `C=C(Cc1ccccc1)CN1CCN(CCOC(c2ccc(F)cc2)c2ccc(F)cc2)CC1` [1-(2-benzylprop-2-en-1-yl)-4-{2-[bis(4-fluorophenyl)methoxy]ethyl}piperazine], with 100 nM.

The same experiment, now with this note: pH 7.4; 4 °C.
Regarding `CO[C@@H](Cc1ccccc1)CN1CCN(CCOC(c2ccc(F)cc2)c2ccc(F)cc2)CC1` [1-{2-[bis(4-fluorophenyl)methoxy]ethyl}-4-[(2S)-2-methoxy-3-phenylpropyl]piperazine], the inhibitory constant (Ki) turned out to be 29 nM. That is a double-digit nanomolar value.
`C=C(CCN1CCN(CCOC(c2ccccc2)c2ccccc2)CC1)c1ccccc1` [1-[2-(diphenylmethoxy)ethyl]-4-(3-phenylbut-3-en-1-yl)piperazine] registered an inhibition constant Ki of 30 nM.
With `Fc1ccc(C(OCCN2CCN(C[C@H](F)Cc3ccccc3)CC2)c2ccc(F)cc2)cc1` [1-{2-[bis(4-fluorophenyl)methoxy]ethyl}-4-[(2R)-2-fluoro-3-phenylpropyl]piperazine], affinity was put at a Ki of 22 nM.
`C[C@H](Cc1ccccc1)CN1CCN(CCOC(c2ccc(F)cc2)c2ccc(F)cc2)CC1` [1-[(2R)-2-benzylpropyl]-4-{2-[bis(4-fluorophenyl)methoxy]ethyl}piperazine] came in with a Ki of 17 nM. This Ki and that of the compound before are within 1.5-fold of each other.
As for `Fc1ccc(C(OCCN2CCN(C[C@@H](F)Cc3ccccc3)CC2)c2ccc(F)cc2)cc1` [1-{2-[bis(4-fluorophenyl)methoxy]ethyl}-4-[(2S)-2-fluoro-3-phenylpropyl]piperazine], the Ki turned out to be 2.7 nM.
In turn, `CC(O)(CCN1CCN(CCOC(c2ccccc2)c2ccccc2)CC1)c1ccccc1` (configuration not stated) [4-{4-[2-(diphenylmethoxy)ethyl]piperazin-1-yl}-2-phenylbutan-2-ol] came in with a Ki of 7 nM.
In turn, `N[C@@H](Cc1ccccc1)CN1CCN(CCOC(c2ccc(F)cc2)c2ccc(F)cc2)CC1` [(2S)-1-(4-{2-[bis(4-fluorophenyl)methoxy]ethyl}piperazin-1-yl)-3-phenylpropan-2-amine] gave a Ki of 39 nM. This Ki is about 5.6-fold higher than that of the compound before.
The compound `CC(O)(CCN1CCN(CCOC(c2ccc(F)cc2)c2ccc(F)cc2)CC1)c1ccccc1` (configuration not stated) [4-(4-{2-[bis(4-fluorophenyl)methoxy]ethyl}piperazin-1-yl)-2-phenylbutan-2-ol] yielded a Ki of 4 nM.
Turning to `N[C@H](Cc1ccccc1)CN1CCN(CCOC(c2ccc(F)cc2)c2ccc(F)cc2)CC1` [(2R)-1-(4-{2-[bis(4-fluorophenyl)methoxy]ethyl}piperazin-1-yl)-3-phenylpropan-2-amine], the Ki was 20 nM. Against the preceding compound, the Ki is about 5-fold higher.
Turning to `C[C@@H](Cc1ccccc1)CN1CCN(CCOC(c2ccc(F)cc2)c2ccc(F)cc2)CC1` [1-[(2S)-2-benzylpropyl]-4-{2-[bis(4-fluorophenyl)methoxy]ethyl}piperazine], affinity was put at a Ki of 17 nM.
`C=C(CCN1CCN(CCOC(c2ccc(F)cc2)c2ccc(F)cc2)CC1)c1ccccc1` [1-{2-[bis(4-fluorophenyl)methoxy]ethyl}-4-(3-phenylbut-3-en-1-yl)piperazine] gave a Ki of 18 nM.
On the same count and under the same terms, the same measure for `CO[C@H](Cc1ccccc1)CN1CCN(CCOC(c2ccc(F)cc2)c2ccc(F)cc2)CC1` [1-{2-[bis(4-fluorophenyl)methoxy]ethyl}-4-[(2R)-2-methoxy-3-phenylpropyl]piperazine]: 27 nM.
